Target: T1, rat metabotropic glutamic acid receptor 7a (Rattus norvegicus, UniProt P35400)
T1 construct: expressed in transfected cells
Assay: Metabotropic glutamic acid receptor-antagonistic effect (Test Method 1, [Ca2+]i by FLIPR)
Assay type: cell-based
Conditions: CHO cells stably expressing rat metabotropic glutamic acid receptor 7a and Gα15, agonist 0.5 mM L-AP4, test compound given 5 minutes before agonist, [Ca2+]i with Fluo-3AM
Excerpt: (Test Method 1) Metabotropic Glutamic Acid Receptor-Antagonistic Effect:
Using LIPOFECTAMINE (by Gibco BRL), CHO cells were transfected with a CDNA of rat metabotropic glutamic acid receptor 7a, which is described in J. Biol. Chem., N. Okamoto et al., Vol. 269, pp. 1231–1236, 1994, to give a cell strain capable of stably expressing rat metabotropic glutamic acid receptor 7a. The metabotropic glutamic acid receptor 7a-transfected CHO cells were further transfected with a Gα15 cDNA, which is describedin J. Biol. Chem., S. Offermanns, M. I. Simon, Vol. 270, pp. 15175–15180, 1995, to give a cell strain capable of stably expressing rat metabotropic glutamic acid receptor 7a and Gα15. The CHO cells capable of stably expressing metabotropic glutamic acid receptor 7a and Gα15 were incubated along with Fluo-3AM (final concentration 4 μM) at 37° C. for 1 hour, and then washed 4 times with an assay buffer (1×Hanks' salt with 2.5 mM probenecid and 20 mM HEPES (N-2-hydroxyethylpiperazine-N′-2-ethanesulfonic acid), and the resulting cells were assayed for [Ca^2+]i. For the determination of [Ca^2+]i, used was a fluorimetric imaging plate reader (FLIPR by Molecular Device). Concretely, using an agonist, 0.5 mM L-AP4, the capacity of the antagonistic substance was measured.
The Hanks' salt was prepared by 10-fold diluting a Hanks' balanced solution (Gibuco BRL 14065-056 10×). […]

T1 sequence (P35400 35-915): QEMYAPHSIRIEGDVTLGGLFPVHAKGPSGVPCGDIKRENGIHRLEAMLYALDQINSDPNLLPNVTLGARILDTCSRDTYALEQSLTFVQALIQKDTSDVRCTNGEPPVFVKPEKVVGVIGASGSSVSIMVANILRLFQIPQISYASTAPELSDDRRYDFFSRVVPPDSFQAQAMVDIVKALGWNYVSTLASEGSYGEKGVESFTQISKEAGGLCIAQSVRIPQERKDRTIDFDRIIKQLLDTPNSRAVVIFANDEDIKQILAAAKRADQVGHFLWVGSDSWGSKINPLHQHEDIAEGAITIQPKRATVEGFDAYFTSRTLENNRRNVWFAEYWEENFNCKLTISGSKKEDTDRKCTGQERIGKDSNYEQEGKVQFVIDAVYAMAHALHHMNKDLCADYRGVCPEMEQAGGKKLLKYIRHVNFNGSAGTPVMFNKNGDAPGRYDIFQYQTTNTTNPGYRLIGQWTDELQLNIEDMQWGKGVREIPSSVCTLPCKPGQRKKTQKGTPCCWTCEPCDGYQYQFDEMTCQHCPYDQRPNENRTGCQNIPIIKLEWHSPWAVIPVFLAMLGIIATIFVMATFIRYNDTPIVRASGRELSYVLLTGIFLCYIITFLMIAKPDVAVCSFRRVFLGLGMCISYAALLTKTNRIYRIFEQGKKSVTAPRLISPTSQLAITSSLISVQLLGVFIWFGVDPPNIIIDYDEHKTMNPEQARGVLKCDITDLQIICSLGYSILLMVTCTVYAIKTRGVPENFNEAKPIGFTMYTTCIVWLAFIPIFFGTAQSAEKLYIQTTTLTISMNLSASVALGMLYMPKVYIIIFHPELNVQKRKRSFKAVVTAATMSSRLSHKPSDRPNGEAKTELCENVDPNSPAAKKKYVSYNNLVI

Structure (SMILES): COc1ccccc1-c1noc2cc(-c3ccccc3)n(C)c(=O)c12 [Production Example 8, 5-methyl-3-(2-methoxyphenyl)-6-phenylisoxazolo[4,5c]pyridin-4(5H)-one]
- IC50: 7.65 nM

Structure (SMILES): Cn1c(-c2cccnc2)cc2onc(-c3ccncc3)c2c1=O [Production Example 32, 5-methyl-6-pyridin-3-yl-3-pyridin-4-yl-isoxazolo[4,5-c]-pyridin-4(5H)-one]
- IC50: 10.4 nM

— patent US7053219B2, “Isoxazolopyridone derivatives and their use” (Banyu Pharmaceutical Co. Ltd., priority 2001, dated 2006)
